In ChEMBL document CHEMBL2384955, “Structure-activity relationships in aminosterol antibiotics: the effect of stereochemistry at the 7-OH group” (2013) one finds Activity and MIC data, which are given here for four compounds.

Assay [1] concerns Lipid bilayer. In words: Binding affinity to DOPC/DOPG large unilamellar vesicle assessed as release of calcein at 1 mg/mL measured for 1 min by spectrophotometric analysis.
For the next assay, the system named is Staphylococcus aureus. In words: Antibacterial activity against Staphylococcus aureus ATCC 29213 assessed as cell viability after 24 hrs by resazurin-based microplate assay. The assay is classed as functional. The following applies: ATCC 29213, 24 h. For orientation: Alamar Blue is a resazurin reagent that responds to reducing activity.
Assay [2] relates to Lipid bilayer. In words: Binding affinity to zwitterionic DOPC large unilamellar vesicle assessed as release of calcein at 1 mg/mL measured for 1 min by spectrophotometric analysis relative to control.
A further assay deals with Enterococcus faecalis. In words: Antibacterial activity against Enterococcus faecalis ATCC 29212 assessed as growth inhibition assessed as cell viability after 24 hrs by resazurin-based microplate assay. The assay is classed as functional. To be noted: ATCC 29212, 24 h.
Assay [3] deals with Lipid bilayer. In words: Binding affinity to DOPG large unilamellar vesicle assessed as release of calcein at 1 mg/mL measured for 1 min by spectrophotometric analysis.
The next assay relates to Escherichia coli. The experiment in a line: Antibacterial activity against Escherichia coli ATCC 25922 assessed as growth inhibition assessed as cell viability after 24 hrs by resazurin-based microplate assay. The assay is classed as functional. To be noted: ATCC 25922, 24 h.
Another assay deals with Pseudomonas aeruginosa. The experiment in a line: Antibacterial activity against Pseudomonas aeruginosa ATCC 27853 assessed as growth inhibition assessed as cell viability after 24 hrs by resazurin-based microplate assay. The assay is classed as functional. To be noted: ATCC 27853, 24 h.

Activity calls are given as the source filed them. The calls are words filed in the database; no cut-off is given here.

For orientation: MIC means the lowest concentration found to suppress growth. `CC(C)[C@@H](CC[C@@H](C)[C@H]1CC[C@H]2[C@@H]3[C@H](O)C[C@H]4C[C@@H](NCCCNCCCCNCCCN)CC[C@]4(C)[C@H]3CC[C@]12C)OS(=O)(=O)O.Cl`: the outcome in the assay with Lipid bilayer [1] and in the assay on Lipid bilayer [3] was Active. Moreover, the MIC in the assay on Staphylococcus aureus was 4 µg/mL; in the assay with Enterococcus faecalis, 32 µg/mL; in the assay with Escherichia coli, 2 µg/mL; in the assay on Pseudomonas aeruginosa it was 8 µg/mL. Moreover, the Activity with Lipid bilayer [2] was 50%.
With `CC(C)[C@@H](CC[C@@H](C)[C@H]1CC[C@H]2[C@@H]3[C@@H](O)C[C@H]4C[C@@H](NCCCNCCCCN)CC[C@]4(C)[C@H]3CC[C@]12C)OS(=O)(=O)O.O=C(O)C(F)(F)F`, the outcome in the assay with Lipid bilayer [1], in the assay with Lipid bilayer [2] and in the assay with Lipid bilayer [3] was inactive. The minimum inhibitory concentration (MIC) in the assay with Staphylococcus aureus worked out at 12 µg/mL; with Enterococcus faecalis, 12 µg/mL; in the assay with Escherichia coli, 12 µg/mL; in the assay with Pseudomonas aeruginosa, 24 µg/mL.
Regarding `CC(C)[C@@H](CC[C@@H](C)[C@H]1CC[C@H]2[C@@H]3[C@@H](O)C[C@H]4C[C@@H](NCCCNCCCCNCCCN)CC[C@]4(C)[C@H]3CC[C@]12C)OS(=O)(=O)O.O=C(O)C(F)(F)F`, the result in the assay on Lipid bilayer [1] was inactive. Also, the MIC amounted to 8 µg/mL in the assay with Staphylococcus aureus, 16 µg/mL in the assay on Enterococcus faecalis, 1 µg/mL with Escherichia coli and 32 µg/mL with Pseudomonas aeruginosa. Besides, the Activity in the assay with Lipid bilayer [2] is 50%. The result with Lipid bilayer [3] was Active.
Turning to `CC(C)[C@@H](CC[C@@H](C)[C@H]1CC[C@H]2[C@@H]3[C@H](O)C[C@H]4C[C@@H](NCCCNCCCCN)CC[C@]4(C)[C@H]3CC[C@]12C)OS(=O)(=O)O.CC(O)C(=O)O`, the result in the assay with Lipid bilayer [1] and in the assay with Lipid bilayer [3] was Active. Besides, the MIC is 2 µg/mL in the assay with Staphylococcus aureus, 2 µg/mL in the assay on Enterococcus faecalis, 8 µg/mL in the assay with Escherichia coli and 4 µg/mL with Pseudomonas aeruginosa. Moreover, the Activity in the assay with Lipid bilayer [2] was 50%.
